Experimental findings from patent US6620822B1, “Fungicidal combinations of active substance” (priority 1999, dated 2003) are described below.

Molecules are shown by their SMILES.

Common to all, as to type: in vivo
The test system of one assay is Sphaerotheca fuliginea. As to the kind of experiment: Sphaerotheca test (cucumber)/protective. The conditions noted are these: protective, single active compound, evaluation 10 days after inoculation.
Assay [1] relates to Erysiphe graminis f.sp. hordei. As to the kind of experiment: Erysiphe test (barley)/curative. The conditions noted are these: curative, single active compound, evaluation 7 days after inoculation.
Another assay relates to Phytophthora infestans. Conditions: tomato, protective, single active compound, application rate 5 g/ha, evaluation 3 days after inoculation.

Turning to `Fc1ccc(Oc2ccnc3cc(Cl)cc(Cl)c23)cc1` [(I), 5,7-dichloro-4-(4-fluoro-phenoxy)-quinoline], the Efficacy in % is 57% with Sphaerotheca fuliginea (application rate 5 g/ha); 63% with Sphaerotheca fuliginea (application rate 10 g/ha); 43% in assay [1] (application rate 6.25 g/ha); 57% in assay [1] (application rate 25 g/ha); 4% with Phytophthora infestans.
`Cc1ccc(N(SC(F)(Cl)Cl)S(=O)(=O)N(C)C)cc1` [(III), N-dichloro-fluoro-methylthio-N′,N′-dimethyl-N-p-tolylsulfamide] registered an Efficacy in % with Sphaerotheca fuliginea (application rate 50 g/ha) of 0%.
`CC(C)(C)C(O)C(Oc1ccc(Cl)cc1)n1cncn1` (stereo not drawn) [(IIa), 1-(4-chloro-phenoxy)-3,3-dimethyl-1-(1,2,4-triazol-1-yl)-butan-2-ol]: the Efficacy in % with Sphaerotheca fuliginea (application rate 5 g/ha) was found to be 63%; in assay [1] (application rate 25 g/ha), 93%.
Turning to `CC(C)(C)C(O)C(Oc1ccc(-c2ccccc2)cc1)n1cncn1` (stereo not drawn) [(IIb), 1-(4-phenyl-phenoxy)-3,3-dimethyl-1-(1,2,4-triazol-1-yl)-butan-2-ol], the Efficacy in % in the assay with Sphaerotheca fuliginea (application rate 10 g/ha) is given as 27%.
`CC1CNC(=S)[S][Zn][S]C(=S)N1` (stereo not drawn) [(IV), zinc propylene-1,2-bis-(dithiocarbamidate)]: in the assay on Sphaerotheca fuliginea (application rate 50 g/ha), the Efficacy in % is on record as 0%.
The compound `CC1(C(=O)Nc2ccc(O)c(Cl)c2Cl)CCCCC1` [(V)] returned an Efficacy in % with Sphaerotheca fuliginea (application rate 10 g/ha) of 0%.
On the same count and under the same terms, as for `Cc1ccc(C(C)NC(=O)C(NC(=O)OC(C)C)C(C)C)cc1` (stereo not drawn) [(VI)], the figure is 0%.
